The target in one assay is T1, human CRFR1 (Homo sapiens, UniProt P34998).
T1 construct: The full-length CRFR1 gene was obtained by PCR using human brain cDNA library; expressed in transfected cells; pcDNA3.1 expression vector; membrane fraction used
T1 sequence (P34998 24-415): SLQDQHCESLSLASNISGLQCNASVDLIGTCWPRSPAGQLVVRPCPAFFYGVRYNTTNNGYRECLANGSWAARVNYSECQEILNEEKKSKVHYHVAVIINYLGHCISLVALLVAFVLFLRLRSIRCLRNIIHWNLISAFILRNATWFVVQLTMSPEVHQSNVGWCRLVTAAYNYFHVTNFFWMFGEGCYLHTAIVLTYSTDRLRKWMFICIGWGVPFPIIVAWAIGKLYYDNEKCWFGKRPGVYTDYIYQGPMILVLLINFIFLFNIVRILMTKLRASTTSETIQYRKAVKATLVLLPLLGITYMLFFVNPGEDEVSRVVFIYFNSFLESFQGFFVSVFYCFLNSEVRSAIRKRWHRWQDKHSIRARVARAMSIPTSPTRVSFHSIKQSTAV
Description: CRFR1 binding test (SPA competition with 125I-CRF, membrane fraction of CRFR1-expressing HEK293 cells). The settings on record: 100 pM 125I-CRF, room temperature, read-out: CRF1 receptor binding capacity IC50. As for the experimental part: The binding capacities of the compounds of the invention for CRF1 receptor (CRFR1) were evaluated.
The membrane fraction of human CRFR1 high-expressing cells was used as the material for a CRFR1 binding experiment. The CRFR1-expressing cells were prepared in the following manner. The full-length CRFR1 gene was obtained by PCR using human brain cDNA library (QuickClone™ Clontech). The obtained DNA fragment was inserted into a cloning vector and the nucleotide sequence was confirmed. cDNA having the proper nucleotide sequence was linked to an expression vector (pcDNA3.1™, Invitrogen). The CRFR1 expression vector was introduced into HEK293 cell, and the resistant cells which proliferated in culture medium containing G418 (1 mg/ml) were cloned by the limiting dilution method. Out of the cloned cells, cells having high binding affinity between the membrane fraction per unit of protein and sauvagine were selected according to the following binding experiment. And the selected cells were used for the experiments.
The cloned cells obtained in (1) were collected and suspended in ice-cooled membrane buffer (50 mM Tris-HCl, 5 mM MgCl2, 2 mM EGTA, 1 mM DTT, protease inhibitor cocktail (COMPLETE™, Roche Diagnostics) pH 7.3), and then the cells were disrupted with a Polytron ([…]) while cooling on ice (level 5, 10 seconds, 2-5 times, ice-cooling) and then centrifuged (2,000 rpm, 5 minutes, 4° C.), after which the supernatant was collected. Membrane buffer was added to the precipitate, and the mixture was subjected to Polytron treatment (same conditions as above) and centrifuged (same conditions as above), and the obtained supernatant was collected and combined with the previous supernatant. This was centrifuged (13,000 rpm (18,000×g), 30 minutes, 4° C.) to prepare cell membranes. The precipitated cell membranes were suspended in membrane buffer and disrupted with a Polytron (level 5, 10 seconds, 3-5 times, ice-cooling) to prepare a dispersed suspension. The protein assay was performed.
The following method (1) or (2) was performed for use as the cell membrane fraction.
(1) The above dispersed suspension was diluted with membrane buffer containing 0.1% BSA to a protein concentration of 200 μg/ml, for use as the cell membrane fraction
(2) The above dispersed suspension was frozen for preservation, and if needed, thawed, re-dispersed and diluted for used as the cell membrane fraction.
A binding competition experiment with CRF was conducted by the SPA (GE Healthcare) method using a 96-well plate. A mixture of 5 μg of the cell membrane fraction protein, 1 mg of SPA beads and 100 pM ^125I-CRF (Perkin Elmer) was allowed to stand at room temperature for at least 2 hours in the presence of a test compound, and the radioactivity of each well after centrifugation (1,200 rpm (260×g), 5 minutes, room temperature) was measured with a TopCount (registered trademark; Perkin Elmer).
The radioactivity with addition of a 4,000-fold excess of non-radioactive sauvagine as the nonspecific binding was subtracted from each value, and the resulting value was expressed as a percentage (% of control), with 100% as the radioactivity without addition of the test compound (control). The IC50 value was calculated from a binding inhibition curve drawn with test compound concentration on the horizontal axis and % (% of control) on the vertical axis.

The test system of a further assay is Balb/c mice. In words: Light/dark box test in mice (anxiolytic effect). It counts as in vivo. The settings on record: for anxiolytic effect in the light/dark box test: 30 mg/kg, oral administration; for minimal effective dose: Mus musculus, 1 h, minimum dose significantly prolonging time spent in the light box vs vehicle, oral, one hour prior to test. The method, then:
The light/dark box test in mice was carried out according to a modified method of Belzung C., Misslin R., Vogel E. et al. (Reference; Behavioural effects of the benzodiazepine receptor partial agonist RO16-6028 in mice, Psychopharmacology, 97, 388-391, 1989). The test apparatus used was a light/dark box comprising a covered black acrylic box (dark box; 15×10×20 cm), an uncovered white acrylic box (light box; 15×20×20 cm) and a black acrylic tunnel (10×7×4.5 cm) which connects dark box and light box and enables a mouse to freely move back and forth between the dark box and light box. In this test apparatus, however, a transparent acrylic polymer was used for the front side (20×20 cm) and back side (20×20 cm) of the light box to allow observation of the behavior. After setting illumination so that the light intensity of the floor of the light box was 150 Lux, 5-week-old male Balb/c mice (purchased from Nihon Charles River) were introduced into the dark box at the beginning of the test. For the test, the tested compound was suspended in 5% dimethylsulfoxide, 5% Cremopor EL and 90% physiological saline and orally administered to the test animals one hour prior to the start of the test.
The time spent in the light box was measured as an index of the anxiolytic effect, with “spend in the light box” defined as the state in which all limbs of the mice were on the floor of the light box. […] The statistical significance between the vehicle-treated group and the test compound-treated groups was analyzed by one way analysis of variance followed by Dunnett multiple comparison when multiple doses were set for the same test, and by the Mann-Whitney U test when only one dose was set.

As to `COCc1cc(OC)c(-c2csc3c(N(CC4CC4C)C4CCOCC4)c(OC)nn23)c(OC)c1` (stereo not drawn) [Example 12, 3-[2,6-Dimethoxy-4-(methoxymethyl)phenyl]-6-methoxy-N-[(2-methylcyclopropyl)methyl]-N-(tetrahydro-2H-pyran-4-yl)pyrazolo[5,1-b][1,3]thiazole-7-amine], the IC50 (usually the midpoint of a concentration-inhibition curve) at human CRFR1 is 82 nM. With `COCc1cc(OC)c(-c2csc3c(N(CC4CC4)C4CCCOC4)c(OC)nn23)c(OC)c1` (stereo not drawn) [Example 11, N-(Cyclopropylmethyl)-3-[2,6-dimethoxy-4-(methoxymethyl)phenyl]-6-methoxy-N-(tetrahydro-2H-pyran-3-yl)pyrazolo[5,1-b][1,3]thiazole-7-amine], at human CRFR1, the IC50 was 37 nM. On the same count and under the same terms, the value for `CCCCCN(c1c(OC)nn2c(-c3c(OC)cc(COC)cc3OC)csc12)C1CCOCC1` [Example 8, 3-[2,6-Dimethoxy-4-(methoxymethyl)phenyl]-6-methoxy-N-pentyl-N-(tetrahydro-2H-pyran-4-yl)pyrazolo[5,1-b][1,3]thiazole-7-amine] was 63 nM; that for `COCc1cc(OC)c(-c2csc3c(N(CC4CCC4)C4CCOCC4)c(OC)nn23)c(OC)c1` [Example 7, N-(Cyclobutylmethyl)-3-[2,6-dimethoxy-4-(methoxymethyl)phenyl]-6-methoxy-N-(tetrahydro-2H-pyran-4-yl)pyrazolo[5,1-b][1,3]thiazole-7-amine] was 46 nM; that for `COc1cc(C#N)cc(OC)c1-c1csc2c(N(CC3CCOCC3)CC3CC3)c(OC)nn12` [Example 15, 4-{7-[(Cyclopropylmethyl)(tetrahydro-2H-pyran-4-ylmethyl)amino]-6-methoxypyrazolo[5,1-b][1,3]thiazol-3-yl}-3,5-dimethoxybenzonitrile] was 70 nM. Regarding `COc1cc(C#N)cc(OC)c1-c1csc2c(N(CC3CC3)CC3CCOC3)c(OC)nn12` (stereo not drawn) [Example 14, 4-{7-[(Cyclopropylmethyl)(tetrahydrofuran-3-ylmethyl)amino]-6-methoxypyrazolo[5,1-b][1,3]thiazol-3-yl}-3,5-diimethoxybenzonitrile], in the assay on Balb/c mice, the “anxiolytic effect in the light/dark box test” value was “statistically significant effects” and the minimal effective dose (in general, the smallest amount tested that counted as effective) was 30 mg/kg. Also, on human CRFR1, the IC50 was found to be 90 nM. Take `CCCN(c1c(OC)nn2c(-c3c(OC)cc(COC)cc3OC)csc12)C1CCOCC1` [Example 10, 3-[2,6-Dimethoxy-4-(methoxymethyl)phenyl]-6-methoxy-N-propyl-N-(tetrahydro-2H-pyran-4-yl)pyrazolo[5,1-b][1,3]thiazole-7-amine]: in the assay with Balb/c mice, the “anxiolytic effect in the light/dark box test” value was “statistically significant effects” and the minimal effective dose stood at 30 mg/kg. Consider `CCOCc1cc(OC)c(-c2csc3c(N(CC4CC4)C4CCCOC4)c(OC)nn23)c(OC)c1` (stereo not drawn) [Example 5, N-(Cyclopropylmethyl)-3-[4-(ethoxymethyl)-2,6-dimethoxyphenyl]-6-methoxy-N-(tetrahydro-2H-pyran-3-yl)pyrazolo[5,1-b][1,3]thiazole-7-amine], for which, in the assay on Balb/c mice, the “anxiolytic effect in the light/dark box test” value was “statistically significant effects” and the minimal effective dose amounted to 30 mg/kg. Besides, the IC50 on human CRFR1 is 29 nM. As to `CCCN(c1c(OC)nn2c(-c3c(OC)cc(COCC)cc3OC)csc12)C1CCCOC1` (stereo not drawn) [Example 6, 3-[4-(Ethoxymethyl)-2,6-dimethoxyphenyl]-6-methoxy-N-propyl-N-(tetrahydro-2H-pyran-3-yl)pyrazolo[5,1-b][1,3]thiazole-7-amine], the IC50 on human CRFR1 was 39 nM. In the case of `CCCN(c1c(OC)nn2c(-c3c(Cl)cc(COC)cc3OC)csc12)C1CCOCC1` [Example 13, 3-[2-Chloro-6-methoxy-4-(methoxymethyl)phenyl]-6-methoxy-N-propyl-N-(tetrahydro-2H-pyran-4-yl)pyrazolo[5,1-b][1,3]thiazole-7-amine], in the assay on Balb/c mice, the “anxiolytic effect in the light/dark box test” value was “statistically significant effects” and the minimal effective dose turned out to be 30 mg/kg.

Take `CCCCN(c1c(OC)nn2c(-c3c(OC)cc(COC)cc3OC)csc12)C1CCOCC1` [Example 1, N-Butyl-3-[2,6-dimethoxy-4-(methoxymethyl)phenyl]-6-methoxy-N-(tetrahydro-2H-pyran-4-yl)pyrazolo[5,1-b][1,3]thiazole-7-amine]: in the assay with Balb/c mice, the “anxiolytic effect in the light/dark box test” value is given as “statistically significant effects” and the minimal effective dose amounted to 30 mg/kg. Take `CCCN(c1c(OC)nn2c(-c3c(OC)cc(COC4CCC4)cc3OC)csc12)C1CCOCC1` [Example 17, 3-{4-[(Cyclobutyloxy)methyl]-2,6-dimethoxyphenyl}-6-methoxy-N-propyl-N-(tetrahydro-2H-pyran-4-yl)pyrazolo[5,1-b][1,3]thiazole-7-amine]: the IC50 on human CRFR1 turned out to be 36 nM.

On to `CCOCc1cc(OC)c(-c2csc3c(N(CCC4CC4)C4CCOCC4)c(OC)nn23)c(OC)c1` [Example 3, N-(2-Cyclopropylethyl)-3-[4-(ethoxymethyl)-2,6-dimethoxyphenyl]-6-methoxy-N-(tetrahydro-2H-pyran-4-yl)pyrazolo[5,1-b][1,3]thiazole-7-amine], for which, in the assay with Balb/c mice, the “anxiolytic effect in the light/dark box test” value is “statistically significant effects” and the minimal effective dose is 30 mg/kg. Further, the half-inhibitory concentration (IC50) at human CRFR1 is 65 nM. Regarding `COCc1cc(OC)c(-c2csc3c(N(CC4CC4)C4CCOCC4)c(OC)nn23)c(OC)c1` [Example 9, N-(Cyclopropylmethyl)-3-[2,6-dimethoxy-4-(methoxymethyl)phenyl]-6-methoxy-N-(tetrahydro-2H-pyran-4-yl)pyrazolo[5,1-b][1,3]thiazole-7-amine], in the assay on Balb/c mice, the “anxiolytic effect in the light/dark box test” value is reported as “statistically significant effects” and the minimal effective dose was 30 mg/kg. Turning to `CCCCN(c1c(OC)nn2c(-c3c(OC)cc(COCC)cc3OC)csc12)C1CCOCC1` [Example 2, N-Butyl-3-[4-(ethoxymethyl)-2,6-dimethoxyphenyl]-6-methoxy-N-(tetrahydro-2H-pyran-4-yl)pyrazolo[5,1-b][1,3]thiazole-7-amine], in the assay on Balb/c mice, the “anxiolytic effect in the light/dark box test” value is reported as “statistically significant effects” and the minimal effective dose amounted to 30 mg/kg. As to `COc1cc(OC)c(-c2csc3c(N(CC4CCOCC4)CC4CC4)c(OC)nn23)c(OC)c1` [Example 16, N-(Cyclopropylmethyl)-6-methoxy-N-(tetrahydro-2H-pyran-4-ylmethyl)-3-(2,4,6-trimethoxyphenyl)-pyrazolo[5,1-b][1,3]thiazole-7-amine], the IC50 on human CRFR1 stood at 29 nM.

For the origin of these results see US8431603B2, “3-phenylpyrazolo[5,1-b]thiazole compounds” (Eisai R&D Management Co., Ltd., priority 2008, dated 2013).
